Experimental data taken from PubChem BioAssay (NCI).
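Each compound was tested at five concentrations against cells in 96-well plates for 48 hours. At the GI50, growth is halved. TGI marks complete inhibition of growth.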

Legend:
Assay in all cases: DTP human tumour cell line panel, 48 h
HCT-116 colon = tested on: HCT-116 colon
HL-60(TB) leukemia = tested on: HL-60(TB) leukemia
OVCAR-4 ovarian = tested on: OVCAR-4 ovarian
HCT-15 colon = tested on: HCT-15 colon
HCC-2998 colon = tested on: HCC-2998 colon
CCRF-CEM leukemia = tested on: CCRF-CEM leukemia
OVCAR-8 ovarian = tested on: OVCAR-8 ovarian
A549 NSCLC = tested on: A549 NSCLC
SF-295 CNS = tested on: SF-295 CNS
SK-OV-3 ovarian = tested on: SK-OV-3 ovarian

| SMILES | GI50 (HCT-116 colon) | TGI (HCT-116 colon) | GI50 (HL-60(TB) leukemia) | TGI (HL-60(TB) leukemia) | GI50 (OVCAR-4 ovarian) | TGI (OVCAR-4 ovarian) | GI50 (HCT-15 colon) | TGI (HCT-15 colon) | GI50 (HCC-2998 colon) | TGI (HCC-2998 colon) | GI50 (CCRF-CEM leukemia) | TGI (CCRF-CEM leukemia) | GI50 (OVCAR-8 ovarian) | TGI (OVCAR-8 ovarian) | GI50 (A549 NSCLC) | TGI (A549 NSCLC) | GI50 (SF-295 CNS) | TGI (SF-295 CNS) | GI50 (SK-OV-3 ovarian) | TGI (SK-OV-3 ovarian) |
| --- | --- | --- | --- | --- | --- | --- | --- | --- | --- | --- | --- | --- | --- | --- | --- | --- | --- | --- | --- | --- |
| CNCCNc1nc2ccccc2c2c(=O)c3cccc(OC)c3sc12 | 0.547 µM | 1.86 µM | 1.8 µM | 3.64 µM | 1.47 µM | 3.16 µM | 0.829 µM | 2.15 µM | 1.55 µM | 3.18 µM | 1.43 µM | 3.2 µM | 1.15 µM | 2.8 µM | 1.2 µM | 2.78 µM | 1.55 µM | 3.13 µM | 1.65 µM | 3.84 µM |
| Cc1ccccc1NC(=O)c1[nH]c(=S)nc(N)c1-c1ccccc1C |  | > 100 µM |  | > 100 µM |  | > 100 µM |  | > 100 µM |  | > 100 µM |  | > 100 µM |  | > 100 µM |  | > 100 µM |  | > 100 µM |  | > 100 µM |
| COc1ccc(/C=C(/C(=O)N2CCNCC2)c2cc(OC)c(OC)c(OC)c2)cc1O | 3.45 µM | > 100 µM | 1.87 µM | 5.5 µM | 8.15 µM | > 100 µM | 36.7 µM | > 100 µM | 3.76 µM | > 100 µM | 3.23 µM | > 100 µM | 5.64 µM | > 100 µM | 6.63 µM | > 100 µM | 5.36 µM | 60.3 µM | 4.18 µM | > 100 µM |
| CN(C)CCn1cc(-c2ccc3c(Nc4ccc(CC(=O)Nc5cccc(F)c5)cc4)ncnc3c2)cn1 | 1.26 µM | 2.72 µM | 1.95 µM | 4.85 µM | 1.53 µM | 3.09 µM | 4.44 µM | > 10 µM | 1.77 µM | 3.84 µM | 0.0178 µM | > 10 µM | 1.6 µM | 6.39 µM | 1.3 µM | 3.46 µM | 2.95 µM | > 10 µM | > 10 µM | > 10 µM |
| O=C(Nc1ccccc1Cl)c1ccc(NC2=C(Cl)C(=O)N(Cc3ccccc3)C2=O)cc1 | 21.4 µM | 47.5 µM | 22.5 µM | 50.6 µM | 78.9 µM | > 100 µM | 15 µM | 29.2 µM | 13.7 µM | 26.6 µM | > 100 µM | > 100 µM | 18.7 µM | 36.9 µM | 60.4 µM | > 100 µM | 26.6 µM | > 100 µM | > 100 µM | > 100 µM |
| C[C@H](NC(=O)OC1C2C=CC(O)C1CC2)c1ccccc1 (some centres undefined) |  | > 100 µM |  | > 100 µM |  | > 100 µM |  | 33.6 µM |  | > 100 µM |  | > 100 µM |  | > 100 µM |  | > 100 µM |  | > 100 µM |  | > 100 µM |
| Cn1c(=O)c(Cc2ccc(F)cc2F)cc2cnc(NC3CCOCC3)nc21 | > 25 µM | > 25 µM | > 25 µM | > 25 µM | > 21.7 µM | > 25 µM | > 25 µM | > 25 µM | > 25 µM | > 25 µM | > 25 µM | > 25 µM | > 25 µM | > 25 µM | > 25 µM | > 25 µM | > 25 µM | > 25 µM | > 25 µM | > 25 µM |
| O=C(OCCOCCOC(=O)c1c[nH]cc1-c1ccccc1)c1c[nH]cc1-c1ccccc1 |  | 31.6 µM |  | 55.1 µM |  | 49.7 µM |  | 38.5 µM |  | 42.4 µM |  | > 100 µM |  | 84.7 µM |  | 66.4 µM |  | 35.7 µM |  | 84.4 µM |
| CCC(=O)O[C@@H]1C2C(OC(C)=O)C34COC(C)([C@@H]3C3C(C[C@]3(C)OC(C)=O)[C@@H](OC(=O)c3ccccc3)C4=O)[C@H](OC(C)=O)[C@@]2(OC(C)=O)C[C@@H]1C (some centres undefined) |  | > 100 µM |  | 30 µM |  | 44.7 µM |  | 29.5 µM |  | > 100 µM |  | 36.8 µM |  | > 100 µM |  | > 100 µM |  | 48.7 µM |  | 83.1 µM |
| Cc1ccc(S(=O)(=O)N2CCCCC2CCO)cc1 (centres undefined) |  | > 100 µM |  | > 100 µM |  | > 100 µM |  | > 100 µM |  | > 100 µM |  | > 100 µM |  | > 100 µM |  | > 100 µM |  | > 100 µM |  | > 100 µM |
| COc1ccccc1NC(=O)C1=C(C)NC(C)=C(C(=O)Nc2ccccc2OC)C1c1ccc(C(C)C)cc1 |  | > 100 µM |  | > 1 µM |  | > 100 µM |  | > 100 µM |  | > 100 µM |  | > 1 µM |  | > 100 µM |  | > 100 µM |  | > 100 µM |  | > 100 µM |
| O=C1c2cc3c(cc2-c2c1c1ccc([N+](=O)[O-])cc1c(=O)n2CCCCl)OCO3 | 6.38 µM | > 100 µM | 0.328 µM | > 28.8 µM | 7.34 µM | > 100 µM | 2.09 µM | > 100 µM | 0.489 µM | 5.43 µM | 0.279 µM | > 100 µM | > 100 µM | > 100 µM | 0.523 µM | > 100 µM | 0.066 µM | > 100 µM |  | > 100 µM |
| CCN(CCCl)CCNc1c2ccccc2nc2ccc(OC)cc12 |  | 2.1 µM |  | 3.91 µM |  | 3.24 µM |  | 3.39 µM |  | 2.15 µM |  | 2.41 µM |  | 2.26 µM |  | 7.11 µM |  | 4 µM |  | 3.81 µM |
| O=Cc1ccc(C(F)(F)F)cc1.[C-]#[O+].[C-]#[O+].[C-]#[O+].[Cr] | 16.7 µM | 38.7 µM | 16.1 µM | 92.6 µM | 27.1 µM | > 100 µM | 26.1 µM | 82.7 µM | 53.6 µM | > 100 µM | 9.87 µM | 65.1 µM | 25.3 µM | > 100 µM | 23 µM | > 100 µM | 38.1 µM | > 100 µM | 31.3 µM | > 100 µM |
| Cn1c2ccccc2c2c3c(c4c5ccccc5n(CCCCCC#N)c4c21)C(=O)N(O)C3=O | 0.87 µM | 4.14 µM | 0.381 µM | 1.81 µM | 1.91 µM | 9.33 µM | 1.82 µM | 50.9 µM | 2.57 µM | 38.5 µM | 0.374 µM | > 100 µM | 0.759 µM | 10.8 µM | 1.68 µM | 50.4 µM | 3.03 µM | 9.71 µM | 0.596 µM | 7.45 µM |
